Experimental findings from patent US9546164B2 (GENENTECH, INC., priority 2013, dated 2017) are described below.

Counter-ions that a name gives are not always drawn.

For the first assay, the target named is hNav1.7 (Homo sapiens (Human), UniProt Q15858). In words: Tritiated sulfonamide competitive binding to membranes from cells expressing hNav1.7 and the β1 subunit.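 Further: Filter-bound radioactivity counted by liquid scintillation, nonspecific binding defined with excess unlabelled ligand, IC50 fitted to percent inhibition of specific binding.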
Sequence of hNav1.7 (Q15858 other isoform, or with tags, fused parts or gaps): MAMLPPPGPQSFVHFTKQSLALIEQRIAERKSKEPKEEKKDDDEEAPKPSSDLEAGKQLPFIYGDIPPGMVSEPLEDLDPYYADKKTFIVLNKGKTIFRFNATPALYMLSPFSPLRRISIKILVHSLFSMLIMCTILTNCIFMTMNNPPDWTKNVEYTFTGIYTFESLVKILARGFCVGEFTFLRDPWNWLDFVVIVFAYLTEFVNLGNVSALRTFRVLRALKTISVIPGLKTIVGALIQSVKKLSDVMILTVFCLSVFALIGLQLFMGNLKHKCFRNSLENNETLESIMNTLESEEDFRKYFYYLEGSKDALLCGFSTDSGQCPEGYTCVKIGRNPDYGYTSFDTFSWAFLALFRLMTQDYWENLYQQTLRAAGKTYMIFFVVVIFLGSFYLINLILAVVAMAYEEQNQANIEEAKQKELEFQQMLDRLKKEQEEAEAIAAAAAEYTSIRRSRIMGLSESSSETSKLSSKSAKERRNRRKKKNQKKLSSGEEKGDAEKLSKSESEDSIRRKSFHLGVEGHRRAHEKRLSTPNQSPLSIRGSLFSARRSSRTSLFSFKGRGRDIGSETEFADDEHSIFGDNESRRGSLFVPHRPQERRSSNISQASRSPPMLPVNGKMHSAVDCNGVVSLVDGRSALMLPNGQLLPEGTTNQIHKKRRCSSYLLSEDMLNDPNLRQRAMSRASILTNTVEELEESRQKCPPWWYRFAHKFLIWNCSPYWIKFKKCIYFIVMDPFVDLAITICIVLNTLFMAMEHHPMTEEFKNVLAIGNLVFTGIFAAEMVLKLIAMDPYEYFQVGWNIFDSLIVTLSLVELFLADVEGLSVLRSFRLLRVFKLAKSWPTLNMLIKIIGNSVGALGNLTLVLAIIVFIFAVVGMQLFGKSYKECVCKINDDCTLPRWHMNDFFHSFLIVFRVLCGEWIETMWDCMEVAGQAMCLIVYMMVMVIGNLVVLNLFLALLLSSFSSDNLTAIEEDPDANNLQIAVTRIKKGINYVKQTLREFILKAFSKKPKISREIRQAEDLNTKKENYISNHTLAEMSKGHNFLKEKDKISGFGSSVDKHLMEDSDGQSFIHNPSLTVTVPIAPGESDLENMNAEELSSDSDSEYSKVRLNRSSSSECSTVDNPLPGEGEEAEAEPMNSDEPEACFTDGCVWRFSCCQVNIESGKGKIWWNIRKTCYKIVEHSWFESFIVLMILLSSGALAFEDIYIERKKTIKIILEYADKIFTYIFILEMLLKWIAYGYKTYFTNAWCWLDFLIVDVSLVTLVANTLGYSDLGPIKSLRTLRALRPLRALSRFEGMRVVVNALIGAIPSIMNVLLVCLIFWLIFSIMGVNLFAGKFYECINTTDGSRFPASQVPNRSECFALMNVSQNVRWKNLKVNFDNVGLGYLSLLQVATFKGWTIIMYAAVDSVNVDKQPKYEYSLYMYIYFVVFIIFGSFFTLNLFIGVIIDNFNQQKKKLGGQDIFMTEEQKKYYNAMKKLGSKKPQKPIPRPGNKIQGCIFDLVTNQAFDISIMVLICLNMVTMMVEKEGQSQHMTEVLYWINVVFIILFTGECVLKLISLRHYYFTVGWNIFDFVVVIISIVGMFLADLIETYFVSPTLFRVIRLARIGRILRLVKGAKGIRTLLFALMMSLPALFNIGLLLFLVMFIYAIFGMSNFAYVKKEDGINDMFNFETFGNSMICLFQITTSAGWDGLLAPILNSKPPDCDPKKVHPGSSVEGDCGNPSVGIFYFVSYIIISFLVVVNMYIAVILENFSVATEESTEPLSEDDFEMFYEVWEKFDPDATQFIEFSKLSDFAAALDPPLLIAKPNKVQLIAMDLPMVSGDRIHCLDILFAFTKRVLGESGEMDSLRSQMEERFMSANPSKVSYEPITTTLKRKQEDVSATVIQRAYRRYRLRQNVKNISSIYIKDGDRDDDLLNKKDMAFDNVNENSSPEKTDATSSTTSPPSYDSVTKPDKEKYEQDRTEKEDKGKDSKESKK
Sequence of hNav1.7 (Q07699 19-218 partner): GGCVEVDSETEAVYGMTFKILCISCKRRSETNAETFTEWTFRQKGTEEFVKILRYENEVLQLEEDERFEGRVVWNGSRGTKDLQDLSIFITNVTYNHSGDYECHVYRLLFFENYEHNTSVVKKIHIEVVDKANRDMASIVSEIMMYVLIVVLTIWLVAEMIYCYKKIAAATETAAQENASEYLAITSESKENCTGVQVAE
Conditions: not given
Consider `O=C(NS(=O)(=O)C1CC1)c1cc(C2CC2)c(CN2CCC(Oc3ccc(C(F)(F)F)cc3)CC2)cc1F` [Example 500, 5-cyclopropyl-N-(cyclopropylsulfonyl)-2-fluoro-4-((4-(4-(trifluoromethyl)phenoxy)piperidin-1-yl)methyl)benzamide], for which the IC50 came to 7.8 nM.
Regarding `O=C(NS(=O)(=O)C1CC1)c1cc(C2CC2)c(O[C@@H]2CCCN(Cc3ccc(F)cc3)C2)cc1F` [Example 21, (R)-5-cyclopropyl-N-(cyclopropylsulfonyl)-2-fluoro-4-((1-(4-fluorobenzyl)piperidin-3-yl)oxy)benzamide], the IC50 amounted to 11.2 nM.
Still for that read-out and setting: the figure for `O=C(NS(=O)(=O)C1CC1)c1cc(C2CC2)c(O[C@@H]2CCCN(Cc3ccc(F)cc3Cl)C2)cc1F` [Example 7, (R)-4-((1-(2-chloro-4-fluorobenzyl)piperidin-3-yl)oxy)-5-cyclopropyl-N-(cyclopropylsulfonyl)-2-fluorobenzamide] is 3.5 nM.
Still for that read-out and setting: the same measure for `CS(=O)(=O)NC(=O)c1cc(C2CC2)c(O[C@@H]2CCCN(Cc3cccc(Cl)c3)C2)cc1F` [Example 26, (R)-4-((1-(3-chlorobenzyl)piperidin-3-yl)oxy)-5-cyclopropyl-2-fluoro-N-(methylsulfonyl)benzamide acid]: 6.1 nM; for `CC(c1cc(Cl)cc(Cl)c1)N1CCN(Cc2cc(F)c(C(=O)NS(=O)(=O)C3CC3)cc2C2CC2)CC1` (stereo not drawn) [Example 541, 5-cyclopropyl-N-(cyclopropylsulfonyl)-4-((4-(1-(3,5-dichlorophenyl)ethyl)piperazin-1-yl)methyl)-2-fluorobenzamide]: 5.9 nM.

The assay is the same for the next values; noted with them: read-out: Ligand Binding Assay; 100 pM [3H]compound, membranes with hNav1.7 and β1 subunit, 18 h, room temperature.
Regarding `CS(=O)(=O)NC(=O)c1cc(C2CC2)c(OCC2CCN(S(=O)(=O)c3ccc(F)c(Cl)c3)CC2)cc1F` [Example 382, 4-((1-((3-chloro-4-fluorophenyl)sulfonyl)piperidin-4-yl)methoxy)-5-cyclopropyl-2-fluoro-N-(methylsulfonyl)benzamide], the IC50 was 40.7 nM.
Same read-out and setting: the figure for `C[C@H](c1ccc(F)cc1Cl)N1CCC(COc2cc(F)c(C(=O)NS(C)(=O)=O)cc2C2CC2)CC1` [Example 244] is 12 nM.
The same measure, in the same setting: the figure for `C[C@@H](c1ccc(Cl)c(C2CC2)n1)N1CCC[C@@H](Oc2cc(F)c(C(=O)NS(C)(=O)=O)cc2C2CC2)C1` [Example 310, 4-(((R)-1-((S)-1-(5-chloro-6-cyclopropylpyridin-2-yl)ethyl)piperidin-3-yl)oxy)-5-cyclopropyl-2-fluoro-N-(methylsulfonyl)benzamide] is 2.3 nM.
Still for that read-out and setting: the figure for `CS(=O)(=O)NC(=O)c1cc(C2CC2)c(OCC2CCN(Cc3cc(Cl)c(F)cc3F)CC2)cc1F` [Example 455, trifluoroacetic acid salt] is 8.5 nM.
As for `C[C@@H](c1ccc(F)cc1)N1CCC[C@@H](Oc2cc(F)c(C(=O)NS(C)(=O)=O)cc2C2CC2)C1` (single isomer, unassigned) [Example 315], the IC50 was 19.1 nM.
Still for that read-out and setting: the figure for `O=C(NS(=O)(=O)N1CC(F)C1)c1cc(C2CC2)c(OC2CC3(C2)CN(Cc2ccc(F)cc2Cl)C3)cc1F` [Example 321, 4-((2-(2-chloro-4-fluorobenzyl)-2-azaspiro[3.3]heptan-6-yl)oxy)-5-cyclopropyl-2-fluoro-N-((3-fluoroazetidin-1-yl)sulfonyl)benzamide] is 191 nM.
In the case of `CS(=O)(=O)NC(=O)c1cc(C2CC2)c(OCC2CCN(C(c3ccccc3Cl)c3ccccc3Cl)CC2)cc1F` [Example 361, 4-((1-(bis(2-chlorophenyl)methyl)piperidin-4-yl)methoxy)-5-cyclopropyl-2-fluoro-N-(methylsulfonyl)benzamide, trifluoroacetic acid salt], the IC50 was determined as 2 nM.
With `CS(=O)(=O)NC(=O)c1cc(C2CC2)c(OCC2CCN(C(=O)c3cc(Cl)cc(Cl)c3)CC2)cc1F` [Example 253, 5-Cyclopropyl-4-((1-(3,5-dichlorobenzoyl)piperidin-4-yl)methoxy)-2-fluoro-N-(methylsulfonyl)benzamide], the IC50 was 20 nM.
Same read-out and setting: the same measure for `CCS(=O)(=O)NC(=O)c1cc(C2CC2)c(OCC2CCN([C@](C)(COC)c3cc(Cl)cc(Cl)c3)CC2)cc1F` (single isomer, unassigned) [Example 203]: 3.6 nM; for `CS(=O)(=O)NC(=O)c1cc(C2CC2)c(OCC2CN([C@@H](c3ccccc3)c3ccncc3)C2)cc1F` [Example 152, (S)-5-Cyclopropyl-2-fluoro-N-(methylsulfonyl)-4-((1-(phenyl(pyridin-4-yl)methyl)azetidin-3-yl)methoxy)benzamide]: 443 nM.
As to `CS(=O)(=O)NC(=O)c1cc(C2CC2)c(OC[C@@H]2C[C@H]3CC[C@@H](C2)N3Cc2cc(C(F)(F)F)cc(Cl)c2F)cc1F` [Example 398, 4-(((1R,3S,5S)-8-(3-chloro-2-fluoro-5-(trifluoromethyl)benzyl)-8-azabicyclo[3.2.1]octan-3-yl)methoxy)-5-cyclopropyl-2-fluoro-N-(methylsulfonyl)benzamide, trifluoroacetic acid salt], the IC50 came to 5.1 nM.
Still for that read-out and setting: the figure for `CS(=O)(=O)NC(=O)c1cc(C2CC2)c(O[C@@H]2CCCN(Cc3cc(C(F)(F)F)cc(Cl)c3F)C2)cc1F` [Example 311, (R)-4-((1-(3-chloro-2-fluoro-5-(trifluoromethyl)benzyl)piperidin-3-yl)oxy)-5-cyclopropyl-2-fluoro-N-(methylsulfonyl)benzamide] is 2.9 nM.
For `CCC(c1cc(Cl)cc(Cl)c1)N1CCC(COc2cc(F)c(C(=O)NS(C)(=O)=O)cc2C2CC2)CC1` (stereo not drawn) [Example 155, 5-Cyclopropyl-4-((1-(1-(3,5-dichlorophenyl)propyl)piperidin-4-yl)methoxy)-2-fluoro-N-(methylsulfonyl)benzamide], the IC50 is 2.02 nM.
Consider `C[C@@H](c1ccc(Cl)cc1Cl)N1CCC(C)(COc2cc(F)c(C(=O)NS(C)(=O)=O)cc2C2CC2)CC1` [Example 280, (S)-5-cyclopropyl-4-((1-(1-(2,4-dichlorophenyl)ethyl)-4-methylpiperidin-4-yl)methoxy)-2-fluoro-N-(methylsulfonyl)benzamide], for which the IC50 is 8.1 nM.
Take `CS(=O)(=O)NC(=O)c1cc(C2CC2)c(O[C@H]2CCCN(Cc3ccc(F)cc3Cl)C2)cc1F` [Example 573, (S)-4-((1-(2-chloro-4-fluorobenzyl)piperidin-3-yl)oxy)-5-cyclopropyl-2-fluoro-N-(methylsulfonyl)]: the IC50 came to 107 nM.
Same read-out and setting: the same measure for `CS(=O)(=O)NC(=O)c1cc(C2CC2)c(OCC2CCN(Cc3ccc(C(F)(F)F)cc3)CC2)cc1F` [Example 126]: 282 nM.
On the same count and under the same terms, the same measure for `CC(c1cc(F)cc(F)c1)N1CC(COc2cc(F)c(C(=O)NS(C)(=O)=O)cc2C2CC2)C1` (stereo not drawn) [Example 86, 5-Cyclopropyl-4-((1-(1-(3,5-difluorophenyl)ethyl)azetidin-3-yl)methoxy)-2-fluoro-N-(methylsulfonyl)benzamide]: 49.5 nM.
Same read-out and setting: the figure for `O=C(NS(=O)(=O)C1CC1)c1cc(C2CC2)c(CN2CCO[C@H](Cc3ccc(Cl)c(Cl)c3)C2)cc1F` [Example 460, (R)-5-cyclopropyl-N-(cyclopropylsulfonyl)-4-((2-(3,4-dichlorobenzyl)morpholino)methyl)-2-fluorobenzamide] is 5 nM.
In the case of `O=C(NS(=O)(=O)N1CCC1)c1cc(C2CC2)c(O[C@@H]2CCN(Cc3ccccc3)C2)cc1F` [Example 46, (R)—N-(azetidin-1-ylsulfonyl)-4-((1-benzylpyrrolidin-3-yl)oxy)-5-cyclopropyl-2-fluorobenzamide], the IC50 is 920 nM.
On the same count and under the same terms, the figure for `CS(=O)(=O)NC(=O)c1cc(C2CC2)c(OCC2CN([C@H](c3ccccc3)c3ccccc3F)C2)cc1F` [Example 125, (R)-5-Cyclopropyl-2-fluoro-4-((1-((2-fluorophenyl)(phenyl)methyl)azetidin-3-yl)methoxy)-N-(methylsulfonyl)benzamide] is 25 nM; for `COC[C@H](c1cccc(Cl)c1)N1CCC(COc2cc(F)c(C(=O)NS(C)(=O)=O)cc2C2CC2)CC1` (single isomer, unassigned) [Example 263] it is 20 nM.
Consider `CS(=O)(=O)NC(=O)c1cc(C2CC2)c(OCC2CCN(c3cc(Cl)cc(Cl)c3)CC2)cc1F` [Example 292, 5-Cyclopropyl-4-((1-(3,5-dichlorophenyl)piperidin-4-yl)methoxy)-2-fluoro-N-(methylsulfonyl)benzamide], for which the IC50 was 2.9 nM.
The same measure, in the same setting: the figure for `O=C(NS(=O)(=O)C1CC1)c1cc(C2CC2)c(OCC2CCN(Cc3ccc(C4CC4)cc3Cl)CC2)cc1F` [Example 416, 4-((1-(2-chloro-4-cyclopropylbenzyl)piperidin-4-yl)methoxy)-5-cyclopropyl-N-(cyclopropylsulfonyl)-2-fluorobenzamide, trifluoroacetic acid salt] is 5.3 nM; for `CCS(=O)(=O)NC(=O)c1cc(C2CC2)c(OCC2(C)CN([C@H](C)c3cc(Cl)cc(Cl)c3)C2)cc1F` (single isomer, unassigned) [Example 288] it is 3.5 nM; for “5-cyclopropyl-2-fluoro-N-(methylsulfonyl)-4-((1-(6-(trifluoromethyl)pyridin-2-yl)piperidin-4-yl)methoxy)benzamide [Example 592]” it is 5.4 nM.
`C[C@@H](c1cc(Cl)cc(Cl)c1)N1CCC(C#N)(COc2cc(F)c(C(=O)NS(C)(=O)=O)cc2C2CC2)CC1` [Example 598]: the IC50 was determined as 258 nM.
The same measure, in the same setting: the figure for `C[C@@H](c1cc(Cl)cc(Cl)c1)N1CCC(F)(COc2cc(F)c(C(=O)NS(C)(=O)=O)cc2C2CC2)CC1` [Example 349, (S)-5-cyclopropyl-4-((1-(1-(3,5-dichlorophenyl)ethyl)-4-fluoropiperidin-4-yl)methoxy)-2-fluoro-N-(methylsulfonyl)benzamide, trifluoroacetic acid salt] is 4 nM.
On the same count and under the same terms, the figure for `CS(=O)(=O)NC(=O)c1cc(C2CC2)c(OCC2CN(C(c3ccccc3)c3ccc(C(F)(F)F)cc3)C2)cc1F` (stereo not drawn) [Example 131, 5-Cyclopropyl-2-fluoro-N-(methylsulfonyl)-4-((1-(phenyl(4-(trifluoromethyl)phenyl)methyl)-azetidin-3-yl)methoxy)benzamide] is 2.99 nM.
